Test results published in patent US11248234B2, “Herbicide-resistant hydroxyphenylpyruvate dioxygenases” (BASF SE, priority 2015, dated 2022).
“Also recorded” adds a separate entry of the source.

How the values were obtained:
[1] = system: transgenic Arabidopsis plants (T2) SoHPPD F363I (short); assay: Greenhouse spray test, injury evaluation; format: in vivo, Arabidopsis thaliana; conditions: 14 DAT
Method: (§1) Non-transgenic control plants were treated in parallel and pictures taken 14 days after treatment.
(§2) For post emergence treatment, the test plants are first grown to a height of 3 to 15 cm, depending on the plant habit, and only then treated with the herbicides. For this purpose, the test plants are either sown directly and grown in the same containers, or they are first grown separately and transplanted into the test containers a few days prior to treatment.
(§3) Additionally, T1 and T2 transgenic Arabidopsis plants can be tested for improved tolerance to HPPD-inhibiting herbicides in greenhouse studies. Herbicide injury scoring is done 2-3 weeks after treatment and is rated on a scale of 0 to 100%, 0% being no injury and 100% being complete death.
(§4) Transgenic T2 Arabidopsis plants were sprayed with a range of doses from 1.56-25 g/ha of different HPPD-inhibiting herbicides and injury evaluations were taken two weeks after treatment (FIG. 4). As depicted in Table 8, control plants were severely injured by all doses of herbicides applied, with at least 58% of leaf material being damaged at the lowest application rate and 100% leaf damage at the second application rate.

[2] = system: transgenic Arabidopsis plants (T2) SoHPPD Q317H (short); assay: Greenhouse spray test, injury evaluation; format: in vivo, Arabidopsis thaliana; conditions: for Injury: 14 DAT
Method: as §1, §2, §3, §4

[3] = system: WT (non-transgenic control) Arabidopsis plants; assay: Greenhouse spray test, injury evaluation; format: in vivo, Arabidopsis thaliana; conditions: 14 DAT
Method: as §1, §2, §3, §4

[4] = system: SoHPPD L367V, I375L (short); assay: In vitro HPPD activity assay; format: biochemical, Scenedesmus obliquus; conditions: normalized on Arabidopsis wild-type HPPD (SEQ ID NO:42)
Method: (§5) HPPD produces homogentisic acid and CO2 from 4-hydroxyphenylpyruvate (4-HPP) and O2. The activity assay for HPPD is based on the analysis of homogentisic acid by reversed phase HPLC.
(§6) The assay mixture can contain 150 mM potassium phosphate buffer pH 7.0, 50 mM L-ascorbic acid, 100 μM Catalase (Sigma-Aldrich), 1 μM FeSO4 and 0.2 units of purified mutated HPPD enzyme in a total volume of 505 μl. 1 unit is defined as the amount of enzyme that is required to produce 1 nmol of HGA per minute at 20° C.
(§7) After a preincubation of 30 min the reaction is started by adding 4-HPP to a final concentration of 0.05 mM. The reaction is allowed to proceed for 45 min at room temperature. The reaction is stopped by the addition of 50 μl of 4.5 M phosphoric acid. The sample is filtered using a […] pore size PVDF filtration device.
(§8) 5 μl of the cleared sample is analyzed on an UPLC HSS T3 column (particle size 1.8 μm, dimensions 2.1×50 mm; Waters) by isocratic elution using 90% 20 mM NaH2PO4 pH 2.2, 10% methanol (v/v).
(§9) HGA is detected electrochemically at 750 mV (mode: DC; polarity: positive) and quantified by integrating peak areas (Empower software; Waters).
(§10) Inhibitors are dissolved in DMSO (dimethylsulfoxide) to a concentration of 0.5 mM. From this stock solution serial five-fold dilutions are prepared in DMSO, which are used in the assay. The respective inhibitor solution accounts for 1% of the assay volume. Thus, final inhibitor concentrations range from 5 μM to 320 pM, respectively. Activities are normalized by setting the uninhibited enzyme activity to 100%. IC50 values are calculated using non-linear regression.
(§11) Using methods which are described in the above examples or well known in the art, purified, recombinant mutated HPPD enzymes are characterized with respect to their kinetic properties and sensitivity towards HPPD inhibiting herbicides. Apparent michaelis constants (Km) and maximal reaction velocities (Vmax) are calculated by non-linear regression with the software GraphPad Prism 5 (GraphPad Software, La Jolla, USA) using a substrate inhibition model. Apparent kcat values are calculated from Vmax assuming 100% purity of the enzyme preparation. Weighted means (by standard error) of Km and IC50 values are calculated from at least three independent experiments. The Cheng-Prusoff equation for competitive inhibition (Cheng, Y. C.; Prusoff, W. H. Biochem Pharmacol 1973, 22, 3099-3108) is used to calculate dissociation constants (Ki).
(§12) Field performance of the HPPD enzyme, which is used as a herbicide tolerance trait may depend not only on its lack of sensitivity towards HPPD inhibiting herbicides but also on its activity. To assess the potential performance of a herbicide tolerance trait a tolerance index (TI) is calculated using the following formula: […]
(§13) Easy comparison and ranking of each trait is enabled by normalizing tolerance indexes on Arabidopsis wild-type HPPD.

[5] = system: SoHPPD F39W, L367V, I375L (short); assay: In vitro HPPD activity assay; format: biochemical, Scenedesmus obliquus; conditions: normalized on Arabidopsis wild-type HPPD (SEQ ID NO:42)
Method: as §5, §6, §7, §8, §9, §10, §11, §12, §13

[6] = system: SoHPPD K326E, E345Q (short); assay: In vitro HPPD activity assay; format: biochemical, Scenedesmus obliquus; conditions: normalized on Arabidopsis wild-type HPPD (SEQ ID NO:42)
Method: as §5, §6, §7, §8, §9, §10, §11, §12, §13

[7] = system: SoHPPD V251A, H306R, Q317L, A318P, G321P, K331E, L350M (short); assay: In vitro HPPD activity assay; format: biochemical, Scenedesmus obliquus; conditions: normalized on Arabidopsis wild-type HPPD (SEQ ID NO:42)
Method: as §5, §6, §7, §8, §9, §10, §11, §12, §13

SoHPPD E345Q (short) = assay: In vitro HPPD activity assay; format: biochemical, Scenedesmus obliquus; conditions: normalized on Arabidopsis wild-type HPPD (SEQ ID NO:42)
Method: as §5, §6, §7, §8, §9, §10, §11, §12, §13

SoHPPD I419V (short) = assay: In vitro HPPD activity assay; format: biochemical, Scenedesmus obliquus; conditions: normalized on Arabidopsis wild-type HPPD (SEQ ID NO:42)
Method: as §5, §6, §7, §8, §9, §10, §11, §12, §13

SoHPPD Q317M (short) = assay: In vitro HPPD activity assay; format: biochemical, Scenedesmus obliquus; conditions: normalized on Arabidopsis wild-type HPPD (SEQ ID NO:42)
Method: as §5, §6, §7, §8, §9, §10, §11, §12, §13

SoHPPD Q317H = assay: In vitro HPPD activity assay; format: biochemical, Scenedesmus obliquus; conditions: normalized on Arabidopsis wild-type HPPD (SEQ ID NO:42)
Method: as §5, §6, §7, §8, §9, §10, §11, §12, §13

[8] = system: SoHPPD E345Q, K326D (short); assay: In vitro HPPD activity assay; format: biochemical, Scenedesmus obliquus; conditions: normalized on Arabidopsis wild-type HPPD (SEQ ID NO:42)
Method: as §5, §6, §7, §8, §9, §10, §11, §12, §13

[9] = system: SoHPPD Q317H, A318G, E345Q; assay: In vitro HPPD activity assay; format: biochemical, Scenedesmus obliquus; conditions: normalized on Arabidopsis wild-type HPPD (SEQ ID NO:42)
Method: as §5, §6, §7, §8, §9, §10, §11, §12, §13

[10] = system: SoHPPD E345Q, K326Q (short); assay: In vitro HPPD activity assay; format: biochemical, Scenedesmus obliquus; conditions: normalized on Arabidopsis wild-type HPPD (SEQ ID NO:42)
Method: as §5, §6, §7, §8, §9, §10, §11, §12, §13

SoHPPD H306K (short) = assay: In vitro HPPD activity assay; format: biochemical, Scenedesmus obliquus; conditions: normalized on Arabidopsis wild-type HPPD (SEQ ID NO:42)
Method: as §5, §6, §7, §8, §9, §10, §11, §12, §13

SoHPPD F363I = assay: In vitro HPPD activity assay; format: biochemical, Scenedesmus obliquus; conditions: normalized on Arabidopsis wild-type HPPD (SEQ ID NO:42)
Method: as §5, §6, §7, §8, §9, §10, §11, §12, §13

Compound | Injury ([1]; Event B, 1.56 g ai/ha) [%] | Injury ([1]; Event B, 6.25 g ai/ha) [%] | Injury ([1]; Event B, 25 g ai/ha) [%] | Injury ([1]; Event C, 1.56 g ai/ha) [%] | Injury ([1]; Event C, 6.25 g ai/ha) [%] | Injury ([1]; Event C, 25 g ai/ha) [%] | Injury ([2]; Event B, 1.56 g ai/ha) [%] | TI (normalized tolerance index) [4] | TI (normalized tolerance index) [5] | TI (normalized tolerance index) [6] | TI (normalized tolerance index) [7] | TI (normalized tolerance index) (SoHPPD E345Q (short)) | TI (normalized tolerance index) (SoHPPD I419V (short)) | TI (normalized tolerance index) (SoHPPD Q317M (short)) | TI (normalized tolerance index) (SoHPPD Q317H) | TI (normalized tolerance index) [8] | TI (normalized tolerance index) [9] | TI (normalized tolerance index) [10] | TI (normalized tolerance index) (SoHPPD H306K (short)) | TI (normalized tolerance index) (SoHPPD F363I) | other results
Cc1c(C(=O)c2cnn(C)c2O)ccc(S(C)(=O)=O)c1C1=NOCC1 [Inhibitor 1, [3-(4,5-dihydroisoxazol-3-yl)-2-methyl-4-methylsulfonyl-phenyl]-(5-hydroxy-1-methyl-pyrazol-4-yl)methanone] | 0 | 0 | 0 | 0 | 0 | 0 | 0 |  |  |  |  |  |  |  |  |  |  |  |  |  | Injury ([2]; Event B, 6.25 g ai/ha): 0%; Injury ([2]; Event B, 25 g ai/ha): 18%; Injury ([2]; Event C, 1.56 g ai/ha): 0%; Injury ([2]; Event C, 6.25 g ai/ha): 0%; Injury ([2]; Event C, 25 g ai/ha): 10%; Injury ([3]; 1.56 g ai/ha): 75%; Injury ([3]; 6.25 g ai/ha): 100%; Injury ([3]; 25 g ai/ha): 100%
CS(=O)(=O)c1ccc(C(=O)C2C(=O)CCCC2=O)c([N+](=O)[O-])c1 [Inhibitor 2, 2-(4-methylsulfonyl-2-nitro-benzoyl)cyclohexane-1,3-dione] | 0 | 0 | 3 | 5 | 0 | 0 | 0 | 0.0 | 0.0 | 0.0 | 0.7 | 0.5 | 0.1 | 0.6 | 0.1 | 0.1 | 0.1 | 0.1 | 0.1 | 0.1 | average damage (leaf injury) ([2]; 25 g ai/ha, average of events): 34%; Injury ([2]; Event B, 6.25 g ai/ha): 0%; Injury ([2]; Event B, 25 g ai/ha): 33%; Injury ([2]; Event C, 1.56 g ai/ha): 0%; Injury ([2]; Event C, 6.25 g ai/ha): 3%; Injury ([2]; Event C, 25 g ai/ha): 35%; Injury ([3]; 1.56 g ai/ha): 58%; Injury ([3]; 6.25 g ai/ha): 100%; Injury ([3]; 25 g ai/ha): 100%
CCS(=O)(=O)c1cc(C(F)(F)F)ccc1C1=C(O)c2ncccc2C(C)(C)S1(=O)=O [Inhibitor 4, 7-[2-ethylsulfonyl-4-(trifluoromethyl)phenyl]-5,5-dimethyl-6,6-dioxo-thiopyrano[4,3-b]pyridin-8-ol] |  |  |  |  |  |  |  | 0.3 | 0.2 | 0.0 | 0.0 | 0.3 | 0.3 | 1.3 | 0.3 | 0.0 | 0.4 | 0.0 | 0.3 | 0.1 | 
CC(=O)N(C)c1c(Cl)ccc(C2=C(O)c3ncccc3C(C)(C)S2(=O)=O)c1Cl [Inhibitor 5, N-[2,6-dichloro-3-(8-hydroxy-5,5-dimethyl-6,6-dioxo-thiopyrano[4,3-b]pyridin-7-yl)phenyl]-N-methyl-acetamide] |  |  |  |  |  |  |  | 0.3 | 0.1 | 0.0 | 0.3 | 0.2 | 0.1 | 0.9 | 0.2 | 0.2 | 0.2 | 0.2 | 0.2 | 0.4 | 
CCSc1ccc(Cl)c(C(=O)Nc2nnnn2C)c1Cl [Inhibitor 8, 2,6-dichloro-3-ethylsulfanyl-N-(1-methyltetrazol-5-yl)benzamide] |  |  |  |  |  |  |  | 0.7 | 0.5 | 0.1 | 0.2 | 0.5 | 0.3 | 0.8 | 0.1 | 0.3 | 0.1 | 0.3 | 0.3 | no inhibition; also recorded: no inhi- | 
